How the values were obtained:
[1] = Rat pharmacokinetics in vivo; conditions: male Sprague Dawley rats; for C 8 h / Cmax: doses 1 mg/kg (IV) and 10 mg/kg (PO); for Vd / clearance / bioavailability / half-life / AUC(0-t) / Cmax: rat, in vivo; for AUC(0-t): read-out: PO AUClast
Experimental: The pharmacokinetics of compounds were studied in vivo in rats at doses of 1 mg/kg (IV) and 10 mg/kg (PO).
Male rats (Sprague Dawley) surgically prepared with a jugular vein cannula were treated with experimental compounds via intravenous administration (IV; n=3; 1 mg/kg) or oral administration (PO; n=3; 10 mg/kg). Compounds were formulated as a solution in 40:60 dimethylacetamide:saline (IV administration), a suspension in 1% methyl cellulose (viscosity: 15 cP), 0.1% Tween80 in water (PO administration: Example 3), a solution in 10% DMSO/10% Cremaphor/80% water (PO administration: Examples 4, 11, 21, 23, 25, 26, 32) or a solution in 10% DMSO/20% Cremaphor/70% water (PO administration: Examples 19, 20, 22, 24, 30). […] Serial blood samples were collected via the cannula at 0.02, 0.08, 0.25, 0.5, 1, 2, 4, 6, 8 and 24 h post IV dosing of compound, and at 0.08, 0.25, 0.5, 1, 2, 4, 6, 8 and 24 h post oral dosing of compound, and plasma was prepared by centrifugation and stored immediately at −80° C. Samples were subsequently thawed, prepared for analysis by protein precipitation with acetonitrile, and analysed by tandem LCMS using electrospray ionisation using a matrix-matched calibration curve. PK parameters were calculated from the resulting data.

[2] = Liver hepatocyte stability, rat; assay type: in vitro ADME; conditions: rat hepatocytes, 3 μM compound, 60 min, >80% remaining at 60 min denoted >186, read-out: Liver Hepatocyte Stability: t1/2 (min)
Experimental: (§1) Cryopreserved pooled hepatocytes were purchased from a reputable commercial supplier and stored in liquid nitrogen prior to use. Williams E media supplemented with 2 mM L-glutamine and 25 mM HEPES and test compound (final substrate concentration 3 μM; final DMSO concentration 0.25%) are pre-incubated at 37° C. prior to the addition of a suspension of cryopreserved hepatocytes (final cell density 0.5×10^6 viable cells/mL in Williams E media supplemented with 2 mM L-glutamine and 25 mM HEPES) to initiate the reaction. The final incubation volume is 500 μL. Two control compounds were included with each species, alongside appropriate vehicle control. The reactions are stopped by transferring 50 μL of incubate to 100 μL acetonitrile containing internal standard at the appropriate time points. Samples were removed at 6 time points (0, 5, 15, 30, 45 and 60 min) over the course of a 60 min experiment. The termination plates are centrifuged at 2500 rpm at 4° C. for 30 min to precipitate the protein. Following protein precipitation, the sample supernatants were combined in cassettes of up to 4 compounds and analysed using generic LC-MS/MS conditions. From a plot of ln peak area ratio (compound peak area/internal standard peak area) against time, the gradient of the line is determined. Subsequently, half-life (t1/2) and intrinsic clearance (CLint) were calculated.

[3] = Liver hepatocyte stability, human; assay type: in vitro ADME; conditions: human hepatocytes, 3 μM compound, 60 min, >80% remaining at 60 min denoted >186, read-out: Liver Hepatocyte Stability: t1/2 (min)
Experimental: as §1

Cell cytotoxicity CC50 = assay type: cell-based; conditions: human; mean of at least two experiments
[4] = Liver microsomal stability, human; assay type: in vitro ADME; conditions: pH 7.4; human liver microsomes, 0.5 mg/mL protein, 1 μM compound, NADPH; >80% remaining at 45 min denoted >140; read-out: Liver Microsomal Stability: t1/2 (min); human
Outline: (§2)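 Pooled liver microsomes (0.5 mg/mL protein) in 0.1 M phosphate pH 7.4 with 1 μM compound (0.25% DMSO), started with 1 mM NADPH at 37° C; sampled 0-45 min, minus-NADPH control 45 min. LC-MS/MS depletion slope gave t1/2 and CLint.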

RSV A2 = experiment: RSV plaque reduction assay; assay type: cell-based, respiratory syncytial virus (RSV); conditions: human respiratory syncytial virus, HepG2; Hep-G2 cells, RSV A2, mean of at least two experiments
Outline: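 RSV A2 (100 PFU/well) premixed with eight serial compound dilutions, added to confluent Hep-G2 monolayers for 2 h at 37° C, then held 2 days under CMC overlay containing compound (DMEM, 2% FBS). Plaques immunostained (HRP/TrueBlue) and counted; EC50 is 50% reduction versus virus control from 4-parameter fit, mean of ≥2 experiments.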

[5] = Liver microsomal stability, rat; assay type: in vitro ADME; conditions: pH 7.4; rat liver microsomes, 0.5 mg/mL protein, 1 μM compound, NADPH; >80% remaining at 45 min denoted >140; read-out: Liver Microsomal Stability: t1/2 (min); rat
Outline: as §2

[6] = Liver microsomal stability, dog; assay type: in vitro ADME; conditions: pH 7.4; dog liver microsomes, 0.5 mg/mL protein, 1 μM compound, NADPH; >80% remaining at 45 min denoted >140; read-out: Liver Microsomal Stability: t1/2 (min); dog
Outline: as §2

[7] = Liver hepatocyte stability, dog; assay type: in vitro ADME; conditions: dog hepatocytes, 3 μM compound, 60 min, >80% remaining at 60 min denoted >186, read-out: Liver Hepatocyte Stability: t1/2 (min)
Experimental: as §1

[8] = IV 1 mg/kg, read-out: IV t½ (converted)
[9] = PO 10 mg/kg, read-out: PO t½ (converted)

## CCn1ncc(C(=O)N[C@H]2N=C(c3ccccc3)c3cccc(F)c3NC2=O)c1-c1ccc(NC2CC2)nc1F [Example 11, 5-[6-(Cyclopropylamino)-2-fluoropyridin-3-yl]-1-ethyl-N-[(3S)-9-fluoro-2-oxo-5-phenyl-1,3-dihydro-1,4-benzodiazepin-3-yl]pyrazole-4-carboxamide]
[1]
  C 8 h: 673 ng/mL
  Cmax: 984 ng/mL
[1]; IV 1 mg/kg
  Vd: 2 L/kg
  clearance: 13.9 mL/min/kg
[1]; IV 1 mg/kg, PO 10 mg/kg
  bioavailability: 93%
[1]; [8]
  half-life: 3.2 h
[1]; PO 10 mg/kg
  AUC(0-t): 11200 ng·h/mL
[1]; [9]
  half-life: 2.2 h
[2]
  half-life: 151 min
[3]
  half-life: 194 min
Cell cytotoxicity CC50
  CC50: > 25000 nM
[4]
  half-life: 82.4 min
RSV A2
  EC50: 62 nM
[5]
  half-life: 76.3 min
[6]
  half-life: 24 min
[7]
  half-life: 48.2 min

## CCn1cc(C(=O)N[C@H]2N=C(c3ccccc3)c3cccc(F)c3NC2=O)c(-c2ccc(NC3CC3)nc2F)n1 [Example 26, 3-[6-(Cyclopropylamino)-2-fluoropyridin-3-yl]-1-ethyl-N-[(3S)-9-fluoro-2-oxo-5-phenyl-1,3-dihydro-1,4-benzodiazepin-3-yl]pyrazole-4-carboxamide]
[1]
  C 8 h: 919 ng/mL
  Cmax: 2120 ng/mL
[1]; IV 1 mg/kg
  Vd: 1.1 L/kg
  clearance: 8.2 mL/min/kg
[1]; IV 1 mg/kg, PO 10 mg/kg
  bioavailability: 95.6%
[1]; [8]
  half-life: 2.6 h
[1]; PO 10 mg/kg
  AUC(0-t): 19400 ng·h/mL
[1]; [9]
  half-life: 2.6 h
[2]
  half-life: > 186 min
[3]
  half-life: > 186 min
Cell cytotoxicity CC50
  CC50: > 25000 nM
[4]
  half-life: 84.9 min
RSV A2
  EC50: 36 nM
[5]
  half-life: 70.2 min
[6]
  half-life: 30.8 min
[7]
  half-life: 160 min

## CC(C)Nc1ccc(-c2c(C(=O)N[C@H]3N=C(c4ccccc4)c4ccccc4NC3=O)cnn2C2CCOCC2)c(F)n1 [Example 23, 5-[2-Fluoro-6-(propan-2-ylamino)pyridin-3-yl]-1-(oxan-4-yl)-N-[(3S)-2-oxo-5-phenyl-1,3-dihydro-1,4-benzodiazepin-3-yl]pyrazole-4-carboxamide]
[1]
  C 8 h: 146 ng/mL
  Cmax: 930 ng/mL
[1]; IV 1 mg/kg
  Vd: 1.7 L/kg
  clearance: 12.2 mL/min/kg
[1]; IV 1 mg/kg, PO 10 mg/kg
  bioavailability: 34.7%
[1]; [8]
  half-life: 2.2 h
[1]; PO 10 mg/kg
  AUC(0-t): 4630 ng·h/mL
[1]; [9]
  half-life: 3 h
[2]
  half-life: 96.7 min
[3]
  half-life: > 186 min
Cell cytotoxicity CC50
  CC50: > 25000 nM
RSV A2
  EC50: 50 nM
[7]
  half-life: 127 min

## CCNc1ccc(-c2c(C(=O)N[C@H]3N=C(c4ccccc4)c4ccccc4NC3=O)cnn2C2CCOCC2)c(F)n1 [Example 42, 5-[6-(Ethylamino)-2-fluoropyridin-3-yl]-1-(oxan-4-yl)-N-[(3S)-2-oxo-5-phenyl-1,3-dihydro-1,4-benzodiazepin-3-yl]pyrazole-4-carboxamide]
[2]
  half-life: 72.3 min
[3]
  half-life: 421 min
Cell cytotoxicity CC50
  CC50: > 25000 nM
[4]
  half-life: 194 min
RSV A2
  EC50: 41 nM
[5]
  half-life: 85.8 min
[6]
  half-life: 480 min
[7]
  half-life: 100 min

## CC(C)(C)n1cc(C(=O)N[C@H]2N=C(c3ccccc3)c3cccc(F)c3NC2=O)c(-c2ccc(NC3CC3)nc2F)n1 [Example 30, 1-tert-Butyl-3-[6-(cyclopropylamino)-2-fluoropyridin-3-yl]-N-[(3S)-9-fluoro-2-oxo-5-phenyl-1,3-dihydro-1,4-benzodiazepin-3-yl]pyrazole-4-carboxamide]
[1]
  C 8 h: 444 ng/mL
  Cmax: 918 ng/mL
[1]; IV 1 mg/kg
  Vd: 1.4 L/kg
  clearance: 11.2 mL/min/kg
[1]; IV 1 mg/kg, PO 10 mg/kg
  bioavailability: 57%
[1]; [8]
  half-life: 1.8 h
[1]; PO 10 mg/kg
  AUC(0-t): 8540 ng·h/mL
[1]; [9]
  half-life: 3 h
[2]
  half-life: 98.5 min
[3]
  half-life: 71.3 min
Cell cytotoxicity CC50
  CC50: > 25000 nM
[4]
  half-life: 253 min
RSV A2
  EC50: 32 nM
[5]
  half-life: 53.1 min
[6]
  half-life: 63.7 min
[7]
  half-life: > 186 min

## CCn1cc(C(=O)N[C@H]2N=C(c3ccccc3)c3ccccc3NC2=O)c(-c2ccc(NC3CC3)nc2F)n1 [Example 25, 3-[6-(Cyclopropylamino)-2-fluoropyridin-3-yl]-1-ethyl-N-[(3S)-2-oxo-5-phenyl-1,3-dihydro-1,4-benzodiazepin-3-yl]pyrazole-4-carboxamide]
[1]
  C 8 h: 294 ng/mL
  Cmax: 1150 ng/mL
[1]; IV 1 mg/kg
  Vd: 0.9 L/kg
  clearance: 15.9 mL/min/kg
[1]; IV 1 mg/kg, PO 10 mg/kg
  bioavailability: 71.5%
[1]; [8]
  half-life: 1.3 h
[1]; PO 10 mg/kg
  AUC(0-t): 7470 ng·h/mL
[1]; [9]
  half-life: 2.7 h
[2]
  half-life: > 186 min
[3]
  half-life: 506 min
Cell cytotoxicity CC50
  CC50: > 25000 nM
[4]
  half-life: 82.8 min
RSV A2
  EC50: 49 nM
[5]
  half-life: 46.3 min
[6]
  half-life: 17 min
[7]
  half-life: 68.1 min

## O=C(N[C@H]1N=C(c2ccccc2)c2cccc(F)c2NC1=O)c1cn(C2CCOCC2)nc1-c1ccc(NC2CC2)nc1F [Example 32, 3-[6-(Cyclopropylamino)-2-fluoropyridin-3-yl]-N-[(3S)-9-fluoro-2-oxo-5-phenyl-2,3-dihydro-1H-1,4-benzodiazepin-3-yl]-1-(oxan-4-yl)-1H-pyrazole-4-carboxamide]
[1]
  C 8 h: 84 ng/mL
  Cmax: 452 ng/mL
[1]; IV 1 mg/kg
  Vd: 1.1 L/kg
  clearance: 17.7 mL/min/kg
[1]; IV 1 mg/kg, PO 10 mg/kg
  bioavailability: 19.3%
[1]; [8]
  half-life: 1.2 h
[1]; PO 10 mg/kg
  AUC(0-t): 1940 ng·h/mL
[1]; [9]
  half-life: 5.2 h
[2]
  half-life: 376 min
[3]
  half-life: > 186 min
Cell cytotoxicity CC50
  CC50: > 25000 nM
[4]
  half-life: 298 min
RSV A2
  EC50: 58 nM
[5]
  half-life: 127 min
[6]
  half-life: 331 min
[7]
  half-life: > 186 min

## O=C(N[C@H]1N=C(c2ccccc2)c2cccc(F)c2NC1=O)c1cnn(C2COC2)c1-c1ccc(NC2CC2)nc1F [Example 19, 5-[6-(Cyclopropylamino)-2-fluoropyridin-3-yl]-1-(oxetan-3-yl)-N-[(3S)-9-fluoro-2-oxo-5-phenyl-1,3-dihydro-1,4-benzodiazepin-3-yl]pyrazole-4-carboxamide]
[1]
  C 8 h: 315 ng/mL
  Cmax: 1320 ng/mL
[1]; IV 1 mg/kg
  Vd: 1.6 L/kg
  clearance: 14.3 mL/min/kg
[1]; IV 1 mg/kg, PO 10 mg/kg
  bioavailability: 64.6%
[1]; [8]
  half-life: 1.7 h
[1]; PO 10 mg/kg
  AUC(0-t): 7290 ng·h/mL
[1]; [9]
  half-life: 3 h
[2]
  half-life: 185 min
[3]
  half-life: > 186 min
Cell cytotoxicity CC50
  CC50: > 25000 nM
[4]
  half-life: 154 min
RSV A2
  EC50: 37 nM
[5]
  half-life: > 140 min
[6]
  half-life: 90.8 min
[7]
  half-life: 72.2 min

— patent US20220409629A1, “BENZODIAZEPINE DERIVATIVES FOR TREATING A RESPIRATORY SYNCYTIAL VIRUS (RSV) INFECTION” (priority 2019, published 2022)
